Where two headings read alike, the source gives them in different places.
Experiments:
[1] = system: human B lymphoma Ramos cells; assay: In vitro proliferation inhibition of Ramos cells (MTT); type: cell-based; settings: for IC50: Homo sapiens, Ramos cells, 48 hours, MTT
Description: (§1) Cells were seeded at 10000-15000/well into a 96-well culture plate, different concentrations of a test compound were added to each well (3 replicate-wells for each concentration), and blank control, positive compound control and negative control were provided. 48 hours after the administration of the drugs, […] of MTT (5 mg/ml) was added, and the plate was incubated at 37° C. for 4 h, and then […] of a triad solution (10% SDS, 5% isobutanol, 0.01 M HCl) was added. The resultant was cultured at 37° C. overnight, and the OD value was measured at a wavelength of 570 nm using a wavelength-tunable microplate reader ELISA SPECTRA MAX 190. […] The IC50 value was calculated by fitting the inhibition curve using a four-parameter method. The experiment was repeated 3 times independently.

[2] = system: human diffuse large B lymphoma TMD8 cells; assay: In vitro proliferation inhibition of TMD8 cells (MTT); type: cell-based; settings: 48 hours, read-out: IC50 for the inhibition TMD of cells
Description: as §1, with “added.” for “added. The resultant was cultured at 37° C. overnight, and the OD value was measured at a wavelength of 570 nm using a wavelength-tunable microplate reader ELISA SPECTRA MAX 190.”

[3] = target: BTK tyrosine kinase protein (Homo sapiens (Human), UniProt Q06187); assay: Inhibitory activity against Bruton kinase (BTK) at molecular level (ELISA); type: biochemical
Description: Poly(Glu, Tyr) 4:1 as a substrate for enzyme catalyzed reaction was diluted with potassium-free PBS (10 mM sodium phosphate buffer, 150 mM NaCl, pH 7.2-7.4) to […] to coat a ELISA plate. The plate was cultured at 37° C. for 12-16 h, washed with 200 μL/well of T-PBS (PBS containing 0.1% of Tween-20) three times, and dried in an oven at 37° C. for 1-2 h. Into the above ELISA plate coated with the substrate, an ATP solution diluted with a reaction buffer (50 mM HEPES, pH 7.4, 50 mM MgCl2, 5 mM MnCl2, 0.2 mM Na3VO4, 1 mM DTT) was first added at 50 μL/well (concentration of 10 μM). Then, a test compound diluted by 1% DMSO to a suitable concentration was added (10 μL/well), and negative control well and positive compound control well were provided separately. Finally, the reaction was initiated by adding BTK tyrosine kinase protein diluted in 40 μL of reaction buffer.
The above reaction system was placed on a shaker (100 rpm) at 37° C. for 1 h, then washed with T-PBS for three times, primary antibody PY99 (Cell Signaling Technology) was added at 100 μL/well, and the reaction was conducted on the shaker at 37° C. for 0.5 h. After the plate was washed with T-PBS, secondary antibody horseradish peroxidase-labeled goat anti-mouse IgG was added at 100 μL/well, and the reaction was conducted on the shaker at 37° C. for 0.5 h. After the plate was washed with T-PBS, 2 mg/mL of OPD developing solution was added at 100 μL/well, and the reaction was conducted in the dark at 25° C. for 1 to 10 minutes. Then the reaction was quenched by adding 2 M H2SO4 at 50 μL/well. The data were read on a wavelength-tunable microplate reader ELISA SPECTRA MAX 190 at a wavelength of 490 nm.
IC50 was calculated by fitting the inhibition curve using a four-parameter method.

[4] = BTK kinase ELISA, ATP 10 μM, read-out: IC50

Sequence of BTK tyrosine kinase protein (Q06187 whole entry): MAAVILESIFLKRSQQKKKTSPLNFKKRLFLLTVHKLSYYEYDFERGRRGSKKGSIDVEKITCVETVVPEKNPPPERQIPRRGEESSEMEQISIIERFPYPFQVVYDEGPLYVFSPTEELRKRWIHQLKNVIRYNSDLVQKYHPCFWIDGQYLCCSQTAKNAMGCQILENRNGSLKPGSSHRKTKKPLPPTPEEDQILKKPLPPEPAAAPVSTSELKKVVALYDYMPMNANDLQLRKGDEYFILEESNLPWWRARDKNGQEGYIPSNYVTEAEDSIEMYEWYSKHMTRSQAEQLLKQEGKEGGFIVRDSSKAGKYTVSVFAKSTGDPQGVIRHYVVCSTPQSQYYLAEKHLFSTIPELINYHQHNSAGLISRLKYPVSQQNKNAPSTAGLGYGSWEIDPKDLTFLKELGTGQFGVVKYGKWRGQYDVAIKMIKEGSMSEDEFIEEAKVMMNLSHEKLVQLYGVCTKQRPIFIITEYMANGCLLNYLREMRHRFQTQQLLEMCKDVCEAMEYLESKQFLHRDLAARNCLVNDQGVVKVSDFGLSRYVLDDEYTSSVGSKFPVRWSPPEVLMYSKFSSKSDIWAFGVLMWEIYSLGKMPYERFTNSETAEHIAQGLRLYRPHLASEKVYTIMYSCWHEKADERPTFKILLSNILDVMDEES

Row | SMILES | IC50 [1] [nM] | IC50 [3, 4] [nM] | also measured
1 | C=CC(=O)NC1CCc2c(-c3ccc(Oc4ccccc4)cc3)c3c(N)ncnc3n2C1 (racemic) [Compound S3, N-(4-amino-5-(4-phenoxyphenyl)-6,7,8,9-tetrahydropyrimido[5,4-b]indolizine-8-yl)acrylamide] | 11400 ± 800 |  | 
2 | C=CC(=O)N[C@@H]1CCc2c(-c3ccc(Oc4ccccc4)cc3)c3c(N)ncnc3n2C1 [Compound S1, (R)—N-(4-amino-5-(4-phenoxyphenyl)-6,7,8,9-tetrahydropyrimido[5,4-b]indolizine-8-yl)acrylamide] | 94700 ± 45100 |  | IC50 [2]: 5.8 nM; cell activity against human B lymphoma Ramos cells ([1]; qualitative statement): low cell activity
3 | CC(C)(C)C=C(C#N)C(=O)N[C@@H]1CCc2c(-c3ccc(Oc4ccccc4)cc3)c3c(N)ncnc3n2C1 [Compound S4, (R)—N-(4-amino-5-(4-phenoxyphenyl)-6,7,8,9-tetrahydropyrimido[5,4-b]indolizine-8-yl)-2-cyano-4,4-dimethylpent-2-enamide] |  | > 100 | 
4 | C=CC(=O)NCC(=O)N[C@@H]1CCc2c(-c3ccc(Oc4ccccc4)cc3)c3c(N)ncnc3n2C1 [Compound S6, (R)—N-(2-((4-amino-5-(4-phenoxyphenyl)-6,7,8,9-tetrahydropyrimido[5,4-b]indolizine-8-yl)amino)-2-oxoethyl)acrylamide] | 5500 ± 1000 | 1 to 10 | 
5 | C=CC(=O)NC1(C(=O)N[C@@H]2CCc3c(-c4ccc(Oc5ccccc5)cc4)c4c(N)ncnc4n3C2)CC1 [Compound S8, (R)-1-acrylamido-N-(4-amino-5-(4-phenoxyphenyl)-6,7,8,9-tetrahydropyrimido[5,4-b]indolizine-8-yl)cyclopropanecarboxamide] |  | > 100 | 
6 | CC#CC(=O)N[C@@H]1CCc2c(-c3ccc(Oc4ccccc4)cc3)c3c(N)ncnc3n2C1 [Compound S10, (R)—N-(4-amino-5-(4-phenoxyphenyl)-6,7,8,9-tetrahydropyrimido[5,4-b]indolizine-8-yl)But-2-ynylamide] | 8720 ± 8580 |  | IC50 [3]: 1 to 10 nM; IC50 [2]: 30 nM
7 | C=CC(=O)N[C@@H]1CCc2c(-c3ccc(Oc4ccc(F)cc4)cc3)c3c(N)ncnc3n2C1 [Compound S11, (R)—N-(4-amino-5-(4-(4-fluorophenoxy)phenyl)-6,7,8,9-tetrahydropyrimido[5,4-b]indolizine-8-yl)acrylamide] |  | < 1 | 
8 | C=CC(=O)N[C@@H]1CCc2c(-c3ccc(Oc4ccc(C(F)(F)F)cc4)cc3)c3c(N)ncnc3n2C1 [Compound S12, (R)—N-(4-amino-5-(4-(4-(trifluoromethyl)phenoxy)phenyl)-6,7,8,9-tetrahydropyrimido[5,4-b]indolizine-8-yl)acrylamide] |  | < 1 | 
9 | C=CC(=O)N[C@@H]1CCc2c(-c3ccc(C(=O)Nc4ccccn4)cc3)c3c(N)ncnc3n2C1 [Compound S13, (R)-4-(8-acrylamido-4-amino-6,7,8,9-tetrahydropyrimido[5,4-b]indolizine-5-yl)-N-(pyridin-2-yl)benzamide] |  | 1 to 10 | 
10 | C=CC(=O)N[C@@H]1CCc2c(-c3ccc(C(=O)Nc4ccc(F)cn4)cc3)c3c(N)ncnc3n2C1 [Compound S15, (R)-4-(8-acrylamido-4-amino-6,7,8,9-tetrahydropyrimido[5,4-b]indolizine-5-yl)-N-(5-fluoropyridin-2-yl)benzamide] |  | 1 to 10 | 
11 | C=CC(=O)N[C@@H]1CCc2c(-c3ccc(C(=O)N[C@@H](COC)c4ccccc4)cc3)c3c(N)ncnc3n2C1 [Compound S17, 4-((R)-8-acrylamido-4-amino-6,7,8,9-tetrahydropyrimido[5,4-b]indolizine-5-yl)-N—((R)-2-methoxy-1-phenylethyl)benzamide] |  | 1 to 10 | 
12 | C=C1c2c(-c3ccc(Oc4ccccc4)cc3)c3c(N)ncnc3n2C[C@@H]1NC(=O)C#CC [Compound S19, (R)—N-(4-amino-6-methylidene-5-(4-phenoxyphenyl)-7,8-dihydro-6H-pyrimido[5,4-b]pyrrolizin-7-yl)but-2-ynylamide] | 16900 ± 7900 |  | IC50 [3]: < 1 nM
13 | C=CC(=O)N[C@H]1Cn2c(c(-c3ccc(C(=O)Nc4ccccn4)cc3)c3c(N)ncnc32)C1=C [Compound S20, (R)-4-(7-acrylamido-4-amino-6-methylidene-7,8-dihydro-6H-pyrimido[5,4-b]pyrrolizin-5-yl)-N-(pyridin-2-yl)benzamide] |  | 1 to 10 | 
14 | C=CC(=O)N[C@H]1Cn2c(c(-c3ccc(Oc4ccccc4)cc3)c3c(N)ncnc32)C1C (stereo partly drawn) [Compound S21, N-((7R)-4-amino-6-methyl-5-(4-phenoxyphenyl)-7,8-dihydro-6H-pyrimido[5,4-b]pyrrolizin-7-yl)acrylamide] |  | 1 to 10 | 

More lines, main results first:

Row | IC50 [1] [nM] | IC50 [3, 4] [nM] | SMILES | also measured
15 | 6600 ± 2100 | < 1 | CN(C)C/C=C/C(=O)N[C@@H]1CCc2c(-c3ccc(Oc4ccccc4)cc3)c3c(N)ncnc3n2C1 [Compound S5, (R,E)-N-(4-amino-5-(4-phenoxyphenyl)-6,7,8,9-tetrahydropyrimido[5,4-b]indolizine-8-yl)-4-(dimethylamino)but-2-enamide] | 
16 |  | 10 to 100 | C=CC(=O)NC(C)C(=O)N[C@@H]1CCc2c(-c3ccc(Oc4ccccc4)cc3)c3c(N)ncnc3n2C1 (stereo partly drawn) [Compound S7, N-(1-(((R)-4-amino-5-(4-phenoxyphenyl)-6,7,8,9-tetrahydropyrimido[5,4-b]indolizine-8-yl)imino)-1-oxoprop-2-yl) acrylamide] | 
17 |  | 10 to 100 | C=CS(=O)(=O)N[C@@H]1CCc2c(-c3ccc(Oc4ccccc4)cc3)c3c(N)ncnc3n2C1 [Compound S9, (R)—N-(4-amino-5-(4-phenoxyphenyl)-6,7,8,9-tetrahydropyrimido[5,4-b]indolizine-8-yl)vinylsulfamide] | 
18 |  | 1 to 10 | CC#CC(=O)N[C@@H]1CCc2c(-c3ccc(C(=O)Nc4ccccn4)cc3)c3c(N)ncnc3n2C1 [Compound S14, (R)-4-(4-amino-8-(but-2-ynylamide)-6,7,8,9-tetrahydropyrimido[5,4-b]indolizine-5-yl)-N-(pyridin-2-yl)benzamide] | 
19 |  | 1 to 10 | C=CC(=O)N[C@@H]1CCc2c(-c3ccc(C(=O)Nc4cc(C(F)(F)F)ccn4)cc3)c3c(N)ncnc3n2C1 [Compound S16, (R)-4-(8-acrylamido-4-amino-6,7,8,9-tetrahydropyrimido[5,4-b]indolizine-5-yl)-N-(4-(trifluoromethyl)pyridin-2-yl)benzamide] | 
20 |  | 1 to 10 | C=CC(=O)N[C@H]1Cn2c(c(-c3ccc(Oc4ccccc4)cc3)c3c(N)ncnc32)C1=C [Compound S18, (R)—N-(4-amino-6-methylidene-5-(4-phenoxyphenyl)-7,8-dihydro-6H-pyrimido[5,4-b]pyrrolizin-7-yl)acrylamide] | 
21 |  | 1 to 10 | C=CC(=O)N[C@H]1Cn2c(c(-c3ccc(C(=O)Nc4ccccn4)cc3)c3c(N)ncnc32)C1C (stereo partly drawn) [Compound S22, 4-((7R)-7-acrylamido-4-amino-6-methyl-7,8-dihydro-6H-pyrimido[5,4-b]pyrrolizin-5-yl)-N-(pyridin-2-yl)benzamide] | 
22 | ~8530 |  | C=CC(=O)N1CCC[C@@H](n2nc(-c3ccc(Oc4ccccc4)cc3)c3c(N)ncnc32)C1 [Ibrutinib, reference compound] | IC50 [2]: 4.5 nM
